Laboratory results reported in article PMC9400994, “3,4,5‐Trihydroxypiperidine Based Multivalent Glucocerebrosidase (GCase) Enhancers” (Chembiochem, 2022).

How the values were obtained:
GCase [1] = biological target: T1, GCase (Homo sapiens, UniProt P04062); experiment: Inhibitory activity towards human GCase in leukocyte extracts from healthy donors; assay type: biochemical; set-up: screened towards GCase from leukocytes isolated from healthy donors (controls); Isolated leukocytes were disrupted by sonication; from tissue; host or cells: pooled human leukocytes from healthy donors, sonicated homogenate; settings: for IC50: GCase from leukocytes of healthy donors, 4-methylumbelliferyl-β-D-glucoside 3.33 mM; for rp/n (multivalent effect): relative potency divided by number of binding units n; for rp (relative potency): with respect to monovalent compound 18; for inhibition at 1000 µM: human leukocyte extracts, inhibitor 1 mM, 37 °C, read-out: GCase inhibition (percentage inhibition)
T1 sequence (P04062 40-536): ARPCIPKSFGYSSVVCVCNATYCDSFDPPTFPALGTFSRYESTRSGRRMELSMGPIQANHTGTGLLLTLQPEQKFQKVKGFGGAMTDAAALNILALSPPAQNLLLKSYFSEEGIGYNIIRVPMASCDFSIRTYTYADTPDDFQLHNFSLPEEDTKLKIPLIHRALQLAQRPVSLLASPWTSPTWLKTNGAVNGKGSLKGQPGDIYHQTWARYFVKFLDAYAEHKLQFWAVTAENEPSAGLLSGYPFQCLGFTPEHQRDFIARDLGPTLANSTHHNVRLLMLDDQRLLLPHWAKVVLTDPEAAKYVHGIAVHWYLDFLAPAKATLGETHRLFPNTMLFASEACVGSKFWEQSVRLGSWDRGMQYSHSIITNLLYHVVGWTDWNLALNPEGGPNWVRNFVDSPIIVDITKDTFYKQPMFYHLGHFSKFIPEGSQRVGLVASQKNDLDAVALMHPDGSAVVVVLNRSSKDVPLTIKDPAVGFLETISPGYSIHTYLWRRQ
Experimental: The compounds were screened in extracts from a pool of human leucocytes isolated from healthy donors (1 mM inhibitor concentration, 37 °C and optimal pH conditions, see Experimental Section). […] Isolated leukocytes were disrupted by sonication, and a micro BCA protein assay kit (Sigma‐Aldrich) was used to determine the total protein amount for the enzymatic assay, according to the manufacturer instructions. Enzyme activity was measured in a flat‐bottomed 96‐well plate. […] Percentage GCase inhibition is given with respect to the control (without iminosugar). Data are mean ± SD (n=3).
Data are mean ± SD (n=3). Data obtained were fitted using the Origin Microcal program (see the Supporting Information file for further details). […]
leukocytes isolated from healthy donors (controls). Isolated leukocytes were disrupted by sonication, and a micro BCA protein assay kit (Sigma –Aldrich) was used to determine the total protein amount for the enzymatic assay, according to the manufactu rer instructions. Enzyme activity was measured in a flat - […]
GCase inhibition is given with respect to the control (without iminosugar). Data are mean ± SD (n=3).
The corresponding calculated
IC50 determination: The IC50 values of inhibitors against GCase were determined by measuring the initial […]
Data are mean ± SD (n=3). Data obtained were fitted to the following equation using the Origin Microcal program. where Vi/Vo, represent the ratio between the activity measured in the presence of the inhibitor (Vi) and the activity of the control without the inhibitor (V0), “x” the inhibitor concentration, Max and Min, the maximal and minimal enzymatic activity observed, respectively.

GCase [2] = biological target: T1, GCase; set-up: method as in earlier work; settings: 100 μM; ref 20a; cited from earlier work

| Structure (SMILES) | IC50 (GCase [1]) | rp/n (multivalent effect) (GCase [1]) | rp (relative potency) (GCase [1]) | Increase of enzyme activity (GCase [2]) | inhibition at 1000 µM (GCase [1]) |
| --- | --- | --- | --- | --- | --- |
| OC1[C@H](O)CN(CCCCCCCCCn2cc(COC[C@@H](OCc3cn(CCCCCCCCCN4C[C@@H](O)C(O)[C@H](O)C4)nn3)[C@@H](OCc3cn(CCCCCCCCCN4C[C@@H](O)C(O)[C@H](O)C4)nn3)[C@H](OCc3cn(CCCCCCCCCN4C[C@@H](O)C(O)[C@H](O)C4)nn3)[C@@H](COCc3cn(CCCCCCCCCN4C[C@@H](O)C(O)[C@H](O)C4)nn3)OCc3cn(CCCCCCCCCN4C[C@@H](O)C(O)[C@H](O)C4)nn3)nn2)C[C@H]1O [Compound 14] | 6 ± 2 µM | 14 | 83 | – | – |
| CCCCCCCCN1CC(O)C(O)C(O)C1 (stereo not shown) | – | – | – | 1.25 fold | – |
| OC1[C@H](O)CN(CCCCCCCCCn2cc(COCC(COCc3cn(CCCCCCCCCN4C[C@@H](O)C(O)[C@H](O)C4)nn3)(COCc3cn(CCCCCCCCCN4C[C@@H](O)C(O)[C@H](O)C4)nn3)COCc3cn(CCCCCCCCCN4C[C@@H](O)C(O)[C@H](O)C4)nn3)nn2)C[C@H]1O [Compound 13] | 9 ± 4 µM | 14 | 56 | – | – |
| O=C(CCCCC(=O)NC(COCc1cn(CCCCCCCCCN2C[C@@H](O)C(O)[C@H](O)C2)nn1)(COCc1cn(CCCCCCCCCN2C[C@@H](O)C(O)[C@H](O)C2)nn1)COCc1cn(CCCCCCCCCN2C[C@@H](O)C(O)[C@H](O)C2)nn1)NC(COCc1cn(CCCCCCCCCN2C[C@@H](O)C(O)[C@H](O)C2)nn1)(COCc1cn(CCCCCCCCCN2C[C@@H](O)C(O)[C@H](O)C2)nn1)COCc1cn(CCCCCCCCCN2C[C@@H](O)C(O)[C@H](O)C2)nn1 [Compound 15] | 11 ± 3 µM | 8 | 45 | – | – |
| NC(COCc1cn(CCCCCCCCCN2C[C@@H](O)C(O)[C@H](O)C2)nn1)(COCc1cn(CCCCCCCCCN2C[C@@H](O)C(O)[C@H](O)C2)nn1)COCc1cn(CCCCCCCCCN2C[C@@H](O)C(O)[C@H](O)C2)nn1 [Compound 11] | 27 ± 3 µM | 6 | 19 | – | 100% |
| OCc1cn(CCCCCCCCCN2C[C@@H](O)C(O)[C@H](O)C2)nn1 [Compound 18] | 500 ± 50 µM | – | – | – | ~70% |
